biological target: T1, Full length (FL) 3-Phosphoglycerate Dehydrogenase (PHGDH) (Homo sapiens, UniProt O43175); experiment: Full length (FL) PHGDH Diaphorase coupled assay (20 uM NAD); type: biochemical; conditions: full-length PHGDH 10 nM, 30° C. 60 minutes, resorufin fluorescence
T1 construct: Full length (FL) 3-Phosphoglycerate Dehydrogenase (PHGDH) Diaphorase coupled assay (500 uM NAD)
T1 sequence (O43175 1-533): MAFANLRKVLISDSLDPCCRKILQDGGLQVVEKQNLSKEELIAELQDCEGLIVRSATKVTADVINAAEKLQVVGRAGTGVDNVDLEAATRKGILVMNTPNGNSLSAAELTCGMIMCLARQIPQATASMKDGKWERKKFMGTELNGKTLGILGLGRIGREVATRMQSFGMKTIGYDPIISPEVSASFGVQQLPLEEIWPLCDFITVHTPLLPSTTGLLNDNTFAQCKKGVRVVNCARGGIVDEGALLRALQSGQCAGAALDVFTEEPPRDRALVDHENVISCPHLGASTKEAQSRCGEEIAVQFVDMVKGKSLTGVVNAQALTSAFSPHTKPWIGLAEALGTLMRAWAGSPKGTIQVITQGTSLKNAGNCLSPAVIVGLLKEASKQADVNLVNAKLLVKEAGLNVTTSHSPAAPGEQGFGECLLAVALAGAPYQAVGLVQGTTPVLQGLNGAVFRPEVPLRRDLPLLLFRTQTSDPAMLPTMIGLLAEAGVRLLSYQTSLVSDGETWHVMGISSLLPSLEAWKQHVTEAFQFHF
Protocol: (§1) PHGDH activity was determined by detecting the NADH produced during the reaction. Diaphorase was used to catalyze the oxidation of NADH with the concomitant reduction of resazurin to the fluorescent product resorufin. Resorufin fluorescence quantitatively reflected the production of NADH by the PHGDH reaction. To drive the forward reaction, two enzymes in the serine synthesis pathway subsequent to PHGDH, Phosphoserine aminotransferase (PSAT1) and phosphoserine phosphatase (PSPH) were also added to the reaction.

First: Cn1c(C(=O)NC2(c3ccc(-c4nnn[nH]4)cc3)CCOC2)cc2c(Cl)c(Cl)ccc21 (racemic) [I-128 e148, (±)-4,5-Dichloro-1-methyl-N-[3-[4-(1H-tetrazol-5-yl)phenyl]tetrahydro-furan-3-yl]indole-2-carboxamide]
Second: Cn1c(C(=O)NC2(c3ccc(Br)cc3)CCOC2)cc2c(Cl)c(Cl)ccc21 (racemic) [I-135 e142, (±)-N-[3-(4-Bromophenyl)tetrahydrofuran-3-yl]-4,5-dichloro-1-methyl-indole-2-carboxamide]
The IC50 of the first is lower: 1 to 1000 nM for the first, 1000 to 5000 nM for the second. The first is the more potent here.

Compared with `CNC(=O)NS(=O)(=O)N1CCCC(NC(=O)c2cc3c(Cl)c(Cl)ccc3n2C)(c2ccccc2)C1` (racemic) [I-146 e6], `CC(=O)NS(=O)(=O)N1CCC(NC(=O)c2cc3c(Cl)c(Cl)ccc3n2C)(c2ccccc2)C1` (racemic) [I-147 e8] is lower in IC50: 5000 to 10000 nM for the first, 1000 to 5000 nM for the second. The second is the more potent here.

`CC(=O)Nc1cccc(C2(NC(=O)c3cc4c(Cl)c(Cl)ccc4n3C)CCN(C(C)=O)CC2)c1` [I-150 e5] and `CC(=O)Nc1cccc(C2(NC(=O)c3cc4c(Cl)c(Cl)ccc4n3C)CCN(S(=O)(=O)NC(C)=O)CC2)c1` [I-153 e2] fall in the same range of IC50: 5000 to 10000 nM for the first, 5000 to 10000 nM for the second.

`CN1CCC(NC(=O)c2cc3c(Cl)c(Cl)ccc3n2C)(c2ccc(C(=O)O)cc2)C1` (racemic) [I-130 e17] and `CC(=O)NS(=O)(=O)N1CCC(NC(=O)c2cc3c(Cl)c(Cl)ccc3n2C)(c2ccc(C(=O)O)cc2)CC1` [I-144 e11] fall in the same range of IC50: 1 to 1000 nM for the first, 1 to 1000 nM for the second.

First: CC(=O)NS(=O)(=O)N1CCC(NC(=O)c2cc3c(Cl)c(Cl)ccc3n2C)(c2cccc(CO)c2)CC1 [I-149 e12]
Second: CC(=O)NS(=O)(=O)N1CCC(NC(=O)c2cc3c(Cl)c(Cl)ccc3n2C)(c2cccc(C(=O)O)c2)CC1 [I-151 e10]
The IC50 of the first is higher: 5000 to 10000 nM for the first, 1000 to 5000 nM for the second. The second is the more potent here.

`Cn1c(C(=O)NC2(c3cccc(C#N)c3)CCOC2)cc2c(Cl)c(Cl)ccc21` (racemic) [I-143 e139, (±)-4,5-dichloro-N-[3-(3-cyanophenyl)tetrahydrofuran-3-yl]-1-methyl-indole-2-carboxamide] and `Cn1c(C(=O)NC2(c3ccc(C#N)cc3)CCOC2)cc2c(Cl)c(Cl)ccc21` (racemic) [I-134 e143, 4,5-dichloro-N-[3-(4-cyanophenyl)tetrahydrofuran-3-yl]-1-methyl-indole-2-carboxamide] fall in the same range of IC50: 1000 to 5000 nM for the first, 1000 to 5000 nM for the second.

First: Cn1c(C(=O)NC2(c3cccc(C(N)=O)c3)CCOC2)cc2c(Cl)c(Cl)ccc21 (racemic) [I-141 e140, (±)-N-[3-(3-Carbamoylphenyl)tetrahydrofuran-3-yl]-4,5-dichloro-1-methyl-indole-2-carboxamide]
Second: Cn1c(C(=O)NC2(c3ccc(CC(=O)O)cc3)CCOC2)cc2c(Cl)c(Cl)ccc21 (racemic) [I-129 e149, (±)-2-[4-[3-[(4,5-Dichloro-1-methyl-indole-2-carbonyl)amino]tetrahydrofuran-3-yl]phenyl]acetic acid]
The IC50 of the first is higher: 1000 to 5000 nM for the first, 1 to 1000 nM for the second. The second is the more potent here.

`CNC(=O)NS(=O)(=O)N1CCCC(NC(=O)c2cc3c(Cl)c(Cl)ccc3n2C)(c2cccc(C#N)c2)C1` (racemic) [I-142 e7] and `CNC(=O)NS(=O)(=O)N1CCCC(NC(=O)c2cc3c(Cl)c(Cl)ccc3n2C)(c2cccc(CO)c2)C1` (racemic) [I-138 e16] fall in the same range of IC50: 5000 to 10000 nM for the first, 5000 to 10000 nM for the second.

First: CC(=O)NS(=O)(=O)N1CCC(NC(=O)c2cc3c(Cl)c(Cl)ccc3n2C)(c2cccc(C#N)c2)CC1 [I-154 e4]
Second: CNC(=O)NS(=O)(=O)N1CCCC(NC(=O)c2cc3c(Cl)c(Cl)ccc3n2C)(c2cccc(C(=O)O)c2)C1 (racemic) [I-139 e14]
The IC50 of the first is higher: 5000 to 10000 nM for the first, 1000 to 5000 nM for the second. The second is the more potent here.

biological target: T1, Full length (FL) 3-Phosphoglycerate Dehydrogenase (PHGDH); experiment: Full length (FL) PHGDH Diaphorase coupled assay (500 uM NAD); type: biochemical; conditions: full-length PHGDH 5 nM, 30° C. 60 minutes, resorufin fluorescence
Protocol: Full length (FL) 3-Phosphoglycerate Dehydrogenase (PHGDH) Diaphorase coupled assay (500 uM NAD)
as §1
Briefly, serial dilution of compounds were incubated in a volume of 20 μL in 384 well plates with the assay mixture containing 5 nM PHGDH, 500 nM PSAT1, 500 nM PSPH, 500 μM NAD^+, 80 uM 3-phosphoglycerate, 1 mM glutamate, 57 uM Resazurin and 0.2 mg/ml Diaphorase in assay buffer containing 50 mM Trisethanoloamine (TEA) pH8.0, 10 mM MgCl2, 0.01% Tween-20 and 0.05% Bovine Serum Albumin (BSA). The plate was then incubated at 30° C. for 60 minutes and resorufin fluorescence was measured at emission wavelength 598 nm following excitation at 525 nm. The positive control consisted of the complete reaction mixture with 4% DMSO and was set to 0% inhibition.

First: Cn1c(C(=O)NC2(c3ccc(C(=O)O)cc3)CCN(CC(F)(F)F)C2)cc2c(Cl)c(Cl)ccc21 (racemic) [I-125 e19]
Second: Cn1c(C(=O)NC2(c3ccc(C(=O)O)cc3)CCCOC2)cc2c(Cl)c(Cl)ccc21 (racemic) [I-123 e23]
The IC50 of the first is higher: 1000 to 5000 nM for the first, 1 to 1000 nM for the second.

`CC(C(=O)O)c1ccc(C2(NC(=O)c3cc4c(Cl)c(Cl)ccc4n3C)COC2)c(F)c1` (stereo not shown) [I-70 e61] and `CC(C(=O)O)c1ccc(C2(NC(=O)c3cc4c(Cl)c(Cl)ccc4n3C)CCOC2)c(F)c1` (racemic) [I-57 e53] fall in the same range of IC50: 1 to 1000 nM for the first, 1 to 1000 nM for the second.

`CCCC(C(=O)O)c1ccc(C2(NC(=O)c3cc4c(Cl)c(Cl)ccc4n3C)CCOC2)cc1` (racemic) [I-18 e84] and `CCC(C(=O)O)c1ccc(C2(NC(=O)c3cc4c(Cl)c(Cl)ccc4n3C)CCOC2)cc1` (racemic) [I-72 e56] fall in the same range of IC50: 1 to 1000 nM for the first, 1 to 1000 nM for the second.

`Cn1c(C(=O)N[C@]2(c3ccc(CC(=O)O)cc3)CCOC2)cc2c(Cl)c(Cl)ccc21` (single isomer, unassigned) [I-109 or I-108 e150 peak 1] and `Cn1c(C(=O)N[C@@]2(c3ccc(CC(=O)O)cc3)CCOC2)cc2c(Cl)c(Cl)ccc21` (single isomer, unassigned) [I-108 or I-109 e151 peak 2] fall in the same range of IC50: 1 to 1000 nM for the first, 1 to 1000 nM for the second.

`Cn1c(C(=O)NC2(c3ccc(C(CC4CC4)C(=O)O)cc3)COC2)cc2c(Cl)c(Cl)ccc21` (racemic) [I-3 e124] and `C[C@H](C(=O)O)c1ccc(C2(NC(=O)c3cc4c(Cl)c(Cl)ccc4n3C)COC2)cc1` (single isomer, unassigned) [I-35 or I-34 e160 peak 1] fall in the same range of IC50: 1 to 1000 nM for the first, 1 to 1000 nM for the second.

`COc1ccc2c(cc(C(=O)NC3(c4ccc(C(C(=O)O)C5CCCC5)cc4)COC3)n2C)c1Cl` (racemic) [I-26 e130] and `COc1ccc2c(cc(C(=O)NC3(c4ccc(C(C(=O)O)C5CCC5)cc4)COC3)n2C)c1Cl` (racemic) [I-13 e111] fall in the same range of IC50: 1 to 1000 nM for the first, 1 to 1000 nM for the second.

`CN(C)CCOc1cc2c(cc(C(=O)NC3(c4ccc(C(=O)O)cc4)CCOC3)n2C)c(Cl)c1Cl` (racemic) [I-97 e102] and `CCOc1cc2c(cc(C(=O)NC3(c4ccc(C(=O)O)cc4)CCOC3)n2C)c(Cl)c1Cl` (racemic) [I-104 e97] fall in the same range of IC50: 1 to 1000 nM for the first, 1 to 1000 nM for the second.

`COc1cc2c(cc(C(=O)NC3(c4ccc(C(C(=O)O)C(C)C)cc4)COC3)n2C)c(Cl)c1Cl` (racemic) [I-29 e135, (±)-2-[4-[3-[(4,5-Dichloro-6-methoxy-1-methyl-indole-2-carbonyl)amino]oxetan-3-yl]phenyl]-3-methyl-butanoic acid] and `COc1cc2c(cc(C(=O)NC3(c4ccc(C(C)C(=O)O)cc4)COC3)n2C)c(Cl)c1Cl` (stereo not shown) [I-48 e71] fall in the same range of IC50: 1 to 1000 nM for the first, 1 to 1000 nM for the second.

`Cn1c(C(=O)NC2(c3ccc(C(=O)O)cc3)CCOC2)cc2c(Cl)c(Cl)c(OCc3ncc[nH]3)cc21` (racemic) [I-81 e105] and `Cn1c(C(=O)NC2(c3ccc(C(=O)O)cc3)CCOC2)cc2c(Cl)c(Cl)c(OCC3COC3)cc21` (racemic) [I-80 e103] fall in the same range of IC50: 1 to 1000 nM for the first, 1 to 1000 nM for the second.

Compared with `Cn1c(C(=O)NC2(c3ccc(C(=O)O)cc3)CCOC2)cc2c(Cl)cccc21` (racemic) [I-117 e30], `Cn1c(C(=O)NC2(c3ccc(C(=O)O)cc3)CCOC2)cc2c(Cl)c3c(cc21)OCCO3` (racemic) [I-113 e35] is lower in IC50: 1000 to 5000 nM for the first, 1 to 1000 nM for the second.

`COc1ccc2c(cc(C(=O)NC3(c4ccc(S(=O)(=O)NC(C)=O)cc4)COC3)n2C)c1Cl` [I-164 e88] and `CCCC(C(=O)O)c1ccc(C2(NC(=O)c3cc4c(Cl)c(OC)ccc4n3C)COC2)cc1` (racemic) [I-31 e112] fall in the same range of IC50: 1 to 1000 nM for the first, 1 to 1000 nM for the second.

`COc1cc2c(cc(C(=O)NC3(c4ccc(C(=O)O)cc4C)COC3)n2C)c(Cl)c1Cl` [I-51 e68] and `COc1cc2c(cc(C(=O)NC3(c4ccc(C(=O)O)cc4Cl)COC3)n2C)c(Cl)c1Cl` [I-66 e67] fall in the same range of IC50: 1 to 1000 nM for the first, 1 to 1000 nM for the second.

`Cc1ccc2c(cc(C(=O)NC3(c4ccc(CC(=O)O)cc4F)COC3)n2C)c1Cl` [I-63 e44] and `Cn1c(C(=O)NC2(c3ccc(CC(=O)O)cc3Cl)COC2)cc2c(Cl)c(Cl)ccc21` [I-84 e49] fall in the same range of IC50: 1 to 1000 nM for the first, 1 to 1000 nM for the second.

First: Cn1c(C(=O)NC2(c3ccc(C(=O)O)cc3)CCN(c3ccccc3)C2)cc2c(Cl)c(Cl)ccc21 (racemic) [I-121 e21]
Second: Cn1c(C(=O)NC2(c3ccc(C(=O)O)cc3F)CCOC2)cc2c(Cl)c(Cl)ccc21 (racemic) [I-118 e29]
The IC50 of the first is higher: 1000 to 5000 nM for the first, 1 to 1000 nM for the second.

`Cn1c(C(=O)NC2(c3ccc(C4(C(=O)O)CCOC4)cc3)COC2)cc2c(Cl)c(Cl)ccc21` (racemic) [I-2 e125] and `COc1cc2c(cc(C(=O)NC3(c4ccc(C(=O)O)cc4F)COC3)n2C)c(Cl)c1Cl` [I-76 e42] fall in the same range of IC50: 1 to 1000 nM for the first, 1 to 1000 nM for the second.

`COc1cc2c(cc(C(=O)NC3(c4ccc(C(=O)O)cc4F)COC3)n2C)c(Cl)c1C` [I-50 e75] was tested, and the IC50 was 1 to 1000 nM.

Reference: patent US11634412B2, “3-phosphoglycerate dehydrogenase inhibitors and uses thereof” (Raze Therapeutics, Inc., priority 2016, dated 2023)
